{"source": "patent US20050054006A1", "about": "“Combinatorial fluorescent library based on the styryl scaffold” (New York University, priority 2003, published 2005)", "key": {"[1]": {"tested_on": "dsDNA (double stranded DNA)", "assay": "Fluorescence change of the dye upon addition of DNA (fluorometric titration)", "assay_type": "binding", "method": "(§1) With these compounds(FIG. 2), we observed the fluorescence intensity change upon addition of DNA. […] With a series of concentrations of dsDNA (double stranded DNA) added to compound 1, a linear increase in the fluorescence intensities was observed (FIG. 3). At the highest concentration of DNA tested (50 μg/mL), the increase in fluorescence emission reached up to 13.3 times higher than that of the free compound (FIG. 4). A blue shift of 17 nm in the emission wavelength upon DNA addition was observed, without a significant excitation wavelength shift. The structure of compound 1 includes a 2,4,5-trimethoxy group from the benzaldehyde moiety and a unique adamantyl pyridinium functionality.\nDifferent trimethoxy isomers, 2 (3,4,5-trimethoxy) and 3 (2,3,4-trimethoxy) were synthesized to compare the positional effects of the methoxy groups in compound 1 (FIG. 2). While the responses of compound 2 and 3 to DNA treatment were simliar to that of compound 1, the fluorescence emission increase was much smaller in compound 2 (4.3 fold) and compound 3 (1.5 fold)."}, "[2]": {"assay": "Spectrophotometric properties of the free styryl dyes", "assay_type": "physicochemical", "method": "as §1"}, "[3]": {"tested_on": "UACC-62 human melanoma cells", "assay": "Organelle localization in live cells by fluorescence microscopy", "details": "compounds 1, 2, 3 at the same concentration, live UACC-62 cells"}}, "data": [{"smiles": "COc1cc(OC)c(OC)cc1C=Cc1cc[n+](C23CC4CC(CC(C4)C2)C3)cc1.[Br-]", "note": "[Compound 1]", "values": [{"measurement": "blue shift in the emission wavelength upon DNA addition", "setting": "[1]", "result": 17, "unit": "nm"}, {"measurement": "fluorescence intensity change upon addition of DNA", "setting": "[1]", "result": "strong fluorescence increase"}, {"measurement": "increase in fluorescence emission versus free compound", "setting": "[1]; highest DNA concentration tested, 50 μg/mL", "result": 13.3, "unit": "times"}, {"measurement": "φF DNA", "setting": "[1]; quantum yield, with DNA", "result": 0.0032}, {"measurement": "φF DNA/φF free", "setting": "[1]; ratio of quantum yields with DNA and free", "result": 13.3}, {"measurement": "λem DNA (nm)", "setting": "[1]; with DNA", "result": 566, "unit": "nm"}, {"measurement": "emission wavelength", "setting": "[2]", "result": 583, "unit": "nm"}, {"measurement": "excitation wavelength", "setting": "[2]", "result": 413, "unit": "nm"}, {"measurement": "λem free (nm)", "setting": "[2]; free dye", "result": 583, "unit": "nm"}, {"measurement": "λmax (nm)", "setting": "[2]; free dye", "result": 413, "unit": "nm"}, {"measurement": "linear fluorescence response range", "setting": "[2]; in PBS, without self-quenching or wavelength shifts", "result": "0.05 to 100", "unit": "µM"}, {"measurement": "φF free", "setting": "[2]; quantum yield, free dye", "result": 0.00024}, {"measurement": "nuclear localization / staining in live cells", "setting": "[3]", "result": "more selective staining of the nucleus of live cells"}]}]}
